{"source": "paper PMC6694155", "about": "“PTPσ inhibitors promote hematopoietic stem cell regeneration” (Nature Communications, 2019)", "key": {"BM KSL cells [1]": {"tested_on": "BM KSL cells", "test": "CFC assay, 3 day culture of non-irradiated BM KSL cells", "type": "cell-based, mouse", "settings": "for Supplementary Figure 3b: BFU-E / Supplementary Figure 3b: CFU-GEMM / Supplementary Figure 3b: CFU-GM: non-irradiated BM KSL cells, replicates", "procedure": "(§1) CFC assays (colony-forming unit-granulocyte monocyte), burst-forming unit-erythroid, and CFU-GEMM were performed using MethoCult GF M3434 (Stemcell Technologies)[6]. For all in vitro assays, BM CD34^−KSL cells, KSL cells, and Lin^− cells were cultured in TSF media (IMDM, 10% FBS, 1% pen-strep, 20 ng/mL recombinant mouse TPO, 125 ng/mL recombinant mouse SCF, 50 ng/mL recombinant mouse Flt3 ligand). Recombinant mouse SCF, Flt3 ligand, and TPO were purchased from R&D Systems. For competitive repopulation assays, BM cells were isolated from donor 10–12-week-old female CD45.2^+ mice. Recipient 10-week-old female CD45.1^+ B6.SJL mice were irradiated with 950 cGy TBI using a Cs137 irradiator and donor BM cells were administered via tail vein injection along with a competing dose of 1 × 10^5 non-irradiated host BM cells. Multilineage donor hematopoietic cell engraftment was measured in the PB by flow cytometry."}, "human BM CD34+ cells": {"tested_on": "human BM CD34+ cells", "test": "CFU-GEMM from 300 cGy-irradiated human BM CD34+ cells", "type": "cell-based", "procedure": "as §1\nHuman BM mononuclear cells were purchased from AllCells. Cryopreserved human BM cells were recovered in IMDM + 10% FBS + 1% penicillin–streptomycin and then positively selected for CD34^+ stem/progenitor cells by using CD34 MicroBead Kit (Miltenyi Biotec, #130-046-702, 1:5). […]"}, "BM KSL cells [2]": {"tested_on": "BM KSL cells", "test": "CFC assay after lentiviral shRac1 or shBcl2l1 silencing and 300 cGy", "type": "cell-based, mouse", "settings": "for Figure 3i: BFU-E / Figure 3i: CFU-GM / Figure 3i: GEMM: 300 cGy, replicates", "procedure": "Rac1 CDS-targeting- and Bcl2l1 CDS-targeting shRNA in lentiviral plasmid (TRCN0000310888 and TRCN0000004685) and control shRNA (SHC216V) were purchased from Sigma Aldrich. […]. Viral particles were collected after 24 h and 48 h. […] Infected cells were collected the next day and irradiated with 300 cGy followed by treatment with or without 1 μg/mL DJ001, prior to CFC assay.\nas §1"}, "BM KSL cells [3]": {"tested_on": "BM KSL cells", "test": "CFC assay from 300 cGy-irradiated BM KSL cells, 3 day culture", "type": "cell-based, mouse", "procedure": "as §1, with “For all in vitro assays, BM CD34^−KSL cells, KSL cells, and Lin^− cells were cultured in TSF media (IMDM, 10% FBS, 1% pen-strep, 20 ng/mL recombinant mouse TPO, 125 ng/mL recombinant mouse SCF, 50 ng/mL recombinant mouse Flt3 ligand).” left out"}, "[4]": {"molecular_target": "T1, PTPβ (Protein Tyrosine Phosphatase Receptor beta) (Homo sapiens, UniProt P23467)", "T1 construct": "purchased Eurofins Pharma Discovery Services UK", "T1 sequence (P23467 23-1997)": "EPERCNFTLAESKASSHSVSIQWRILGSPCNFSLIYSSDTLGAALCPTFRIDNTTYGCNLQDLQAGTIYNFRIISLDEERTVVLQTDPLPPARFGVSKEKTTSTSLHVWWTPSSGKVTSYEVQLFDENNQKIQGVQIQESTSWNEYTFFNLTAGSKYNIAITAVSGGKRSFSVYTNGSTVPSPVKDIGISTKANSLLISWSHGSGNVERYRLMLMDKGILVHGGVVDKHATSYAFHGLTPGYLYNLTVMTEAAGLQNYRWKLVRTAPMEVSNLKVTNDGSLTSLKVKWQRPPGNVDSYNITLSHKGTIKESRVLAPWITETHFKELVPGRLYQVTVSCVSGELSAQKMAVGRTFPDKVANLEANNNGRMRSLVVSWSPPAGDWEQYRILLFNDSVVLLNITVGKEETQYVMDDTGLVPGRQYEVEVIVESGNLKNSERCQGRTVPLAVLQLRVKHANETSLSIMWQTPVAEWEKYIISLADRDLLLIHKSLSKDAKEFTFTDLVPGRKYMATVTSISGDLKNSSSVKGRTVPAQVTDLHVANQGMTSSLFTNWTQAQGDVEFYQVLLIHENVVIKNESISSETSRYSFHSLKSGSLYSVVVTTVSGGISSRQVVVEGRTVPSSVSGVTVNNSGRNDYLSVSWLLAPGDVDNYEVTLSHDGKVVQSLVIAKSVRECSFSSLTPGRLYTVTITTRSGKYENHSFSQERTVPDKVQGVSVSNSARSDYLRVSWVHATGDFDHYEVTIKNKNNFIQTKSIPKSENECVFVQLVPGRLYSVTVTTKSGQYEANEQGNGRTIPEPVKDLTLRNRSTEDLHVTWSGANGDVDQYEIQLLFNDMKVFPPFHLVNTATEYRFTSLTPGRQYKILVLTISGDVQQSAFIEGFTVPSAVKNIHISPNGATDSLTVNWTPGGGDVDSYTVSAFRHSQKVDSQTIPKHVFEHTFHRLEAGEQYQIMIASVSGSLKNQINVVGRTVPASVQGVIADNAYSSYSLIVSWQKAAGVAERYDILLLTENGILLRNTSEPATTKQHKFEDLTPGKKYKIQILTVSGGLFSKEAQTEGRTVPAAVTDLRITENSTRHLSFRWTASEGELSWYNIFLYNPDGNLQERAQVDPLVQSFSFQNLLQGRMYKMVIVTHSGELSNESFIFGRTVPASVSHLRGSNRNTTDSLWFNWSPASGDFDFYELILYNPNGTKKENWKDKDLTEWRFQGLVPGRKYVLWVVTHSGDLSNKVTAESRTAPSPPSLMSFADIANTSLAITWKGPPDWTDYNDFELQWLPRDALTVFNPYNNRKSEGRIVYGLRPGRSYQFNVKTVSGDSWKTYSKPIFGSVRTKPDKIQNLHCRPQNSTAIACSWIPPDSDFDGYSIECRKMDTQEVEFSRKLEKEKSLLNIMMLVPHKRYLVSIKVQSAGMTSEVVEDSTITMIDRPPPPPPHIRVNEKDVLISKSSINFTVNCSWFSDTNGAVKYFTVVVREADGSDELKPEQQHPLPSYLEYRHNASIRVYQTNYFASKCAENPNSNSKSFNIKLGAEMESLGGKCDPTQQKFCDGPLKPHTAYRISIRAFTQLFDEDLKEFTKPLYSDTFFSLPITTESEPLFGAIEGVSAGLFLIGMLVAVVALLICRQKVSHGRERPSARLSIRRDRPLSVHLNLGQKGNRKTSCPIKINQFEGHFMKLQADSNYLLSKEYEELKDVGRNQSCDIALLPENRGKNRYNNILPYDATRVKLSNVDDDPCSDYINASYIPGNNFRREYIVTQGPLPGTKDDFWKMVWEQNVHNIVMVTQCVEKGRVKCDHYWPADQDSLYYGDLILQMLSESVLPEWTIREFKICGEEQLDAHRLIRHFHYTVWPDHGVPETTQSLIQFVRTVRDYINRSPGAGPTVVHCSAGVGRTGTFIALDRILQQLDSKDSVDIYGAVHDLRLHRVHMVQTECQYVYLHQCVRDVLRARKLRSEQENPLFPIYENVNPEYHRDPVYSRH", "test": "PhosphataseProfiler screen: PTPβ", "type": "biochemical", "settings": "replicates", "procedure": "(§2) Compound DJ001 was evaluated in a PhosphataseProfiler™ screen at 10 μM and 1 μM (2.7 μg/mL and 0.27 μg/mL) concentrations at Eurofins Pharma Discovery Services UK (Study number UK022-0004033) against a panel of 21 Phosphatases. In each experiment, the respective reference antagonist/agonist was tested directly with DJ001 and the data were compared with historical values determined at Eurofins. DJ001 compound inhibition was calculated as percentage inhibition of the enzymatic activity compared with control."}, "[5]": {"molecular_target": "T2, RPTPμ (Receptor Protein Tyrosine Phosphatase Mu) (Homo sapiens, UniProt P28827)", "T2 construct": "purchased Eurofins Pharma Discovery Services UK", "T2 sequence (P28827 21-1452, species assumed)": "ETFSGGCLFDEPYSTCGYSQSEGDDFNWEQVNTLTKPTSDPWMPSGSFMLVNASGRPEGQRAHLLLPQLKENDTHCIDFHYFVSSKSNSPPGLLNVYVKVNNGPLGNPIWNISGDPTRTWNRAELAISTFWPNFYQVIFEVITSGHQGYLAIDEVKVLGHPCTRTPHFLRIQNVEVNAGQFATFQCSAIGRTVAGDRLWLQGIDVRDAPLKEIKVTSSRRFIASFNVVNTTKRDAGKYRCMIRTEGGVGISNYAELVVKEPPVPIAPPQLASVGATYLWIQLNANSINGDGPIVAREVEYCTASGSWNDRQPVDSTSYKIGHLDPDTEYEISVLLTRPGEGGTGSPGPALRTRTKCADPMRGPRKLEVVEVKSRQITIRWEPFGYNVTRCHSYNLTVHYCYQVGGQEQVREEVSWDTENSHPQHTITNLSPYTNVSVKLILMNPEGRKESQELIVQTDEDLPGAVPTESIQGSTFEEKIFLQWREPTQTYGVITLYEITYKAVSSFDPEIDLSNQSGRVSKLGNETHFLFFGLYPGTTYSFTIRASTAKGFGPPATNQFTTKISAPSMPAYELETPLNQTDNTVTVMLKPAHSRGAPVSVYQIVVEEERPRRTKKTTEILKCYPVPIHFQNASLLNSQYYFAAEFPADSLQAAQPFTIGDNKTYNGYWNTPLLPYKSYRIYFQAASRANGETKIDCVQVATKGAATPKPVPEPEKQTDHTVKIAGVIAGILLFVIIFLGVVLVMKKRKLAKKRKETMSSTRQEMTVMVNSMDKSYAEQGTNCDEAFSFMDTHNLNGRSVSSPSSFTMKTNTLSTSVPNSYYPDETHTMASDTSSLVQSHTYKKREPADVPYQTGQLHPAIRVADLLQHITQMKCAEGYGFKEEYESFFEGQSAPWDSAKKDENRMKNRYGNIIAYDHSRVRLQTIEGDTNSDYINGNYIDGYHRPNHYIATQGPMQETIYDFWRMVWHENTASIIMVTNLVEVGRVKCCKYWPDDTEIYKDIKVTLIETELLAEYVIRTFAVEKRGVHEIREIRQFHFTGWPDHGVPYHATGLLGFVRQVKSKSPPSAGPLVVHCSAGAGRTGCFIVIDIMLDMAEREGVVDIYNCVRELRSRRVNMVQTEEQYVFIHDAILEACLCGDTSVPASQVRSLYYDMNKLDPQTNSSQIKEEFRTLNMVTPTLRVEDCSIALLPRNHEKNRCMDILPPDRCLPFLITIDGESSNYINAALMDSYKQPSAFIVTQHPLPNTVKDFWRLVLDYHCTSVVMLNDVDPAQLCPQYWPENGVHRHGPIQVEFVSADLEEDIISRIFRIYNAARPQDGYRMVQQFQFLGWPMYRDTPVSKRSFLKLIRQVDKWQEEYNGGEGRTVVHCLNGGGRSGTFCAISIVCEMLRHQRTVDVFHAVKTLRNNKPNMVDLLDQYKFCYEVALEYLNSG", "test": "PhosphataseProfiler screen: RPTPμ", "type": "biochemical", "settings": "replicates", "procedure": "as §2"}, "[6]": {"molecular_target": "T3, DUSP22 (Dual Specificity Phosphatase 22) (Homo sapiens, UniProt Q9NRW4)", "T3 construct": "purchased Eurofins Pharma Discovery Services UK", "T3 sequence (Q9NRW4 whole entry, species assumed)": "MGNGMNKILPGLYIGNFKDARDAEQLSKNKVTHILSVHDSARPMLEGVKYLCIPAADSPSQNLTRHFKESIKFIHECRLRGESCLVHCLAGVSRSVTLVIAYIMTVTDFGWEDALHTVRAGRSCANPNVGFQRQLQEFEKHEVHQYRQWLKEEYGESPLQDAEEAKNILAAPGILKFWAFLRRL", "test": "PhosphataseProfiler screen: DUSP22", "type": "biochemical", "settings": "replicates", "procedure": "as §2"}, "[7]": {"settings": "BM KSL cells, 300 cGy, 3 days in TSF media + DJ001"}}, "note": "“And” between values parts separate entries of the source, which are not always exact repeats. Equal values may be shown once.", "data": [{"smiles": "O=C(/C=C\\Nc1cccc([N+](=O)[O-])c1)c1ccccc1", "note": "[DJ001, (Z)-3-((3-nitrophenyl)amino)-1-phenylprop-2-en-1-one]", "values": [{"measurement": "Supplementary Figure 3b: BFU-E", "setting": "BM KSL cells [1]; 10 ng/mL", "result": "0 (4×) and 1 and 2"}, {"measurement": "Supplementary Figure 3b: CFU-GEMM", "setting": "BM KSL cells [1]; 10 ng/mL", "result": "2 and 4 (2×) and 7 (2×) and 3"}, {"measurement": "Supplementary Figure 3b: CFU-GM", "setting": "BM KSL cells [1]; 10 ng/mL", "result": "21 and 22 and 19 and 15 (2×) and 18"}, {"measurement": "Supplementary Figure 3b: BFU-E", "setting": "BM KSL cells [1]; 100 ng/mL", "result": "1 (3×) and 3 and 2"}, {"measurement": "Supplementary Figure 3b: CFU-GEMM", "setting": "BM KSL cells [1]; 100 ng/mL", "result": "8 (2×) and 7 and 6 and 5"}, {"measurement": "Supplementary Figure 3b: CFU-GM", "setting": "BM KSL cells [1]; 100 ng/mL", "result": "23 and 20 and 24 (2×) and 21"}, {"measurement": "Supplementary Figure 3b: BFU-E", "setting": "BM KSL cells [1]; 1000 ng/mL", "result": "3 and 2 (3×) and 1"}, {"measurement": "Supplementary Figure 3b: CFU-GEMM", "setting": "BM KSL cells [1]; 1000 ng/mL", "result": "6 (3×) and 8 and 9"}, {"measurement": "Supplementary Figure 3b: CFU-GM", "setting": "BM KSL cells [1]; 1000 ng/mL", "result": "27 and 30 and 28 (2×) and 25"}, {"measurement": "Supplementary Figure 3b: BFU-E", "setting": "BM KSL cells [1]; 5 µg/mL", "result": "2 and 4 and 1 (3×) and 0"}, {"measurement": "Supplementary Figure 3b: BFU-E", "setting": "BM KSL cells [1]; 10 µg/mL", "result": "3 (2×) and 2 (2×) and 1 (2×)"}, {"measurement": "Supplementary Figure 3b: CFU-GEMM", "setting": "BM KSL cells [1]; 10 µg/mL", "result": "3 (3×) and 2 (2×) and 1"}, {"measurement": "Supplementary Figure 3b: CFU-GM", "setting": "BM KSL cells [1]; 10 µg/mL", "result": "14 (2×) and 17 and 16 and 15 and 12"}, {"measurement": "number of BM CFCs in 3 day culture of BM KSL cells", "setting": "BM KSL cells [1]; 10 – 100 ng/ml DJ001", "result": "significantly increased the number of BM CFCs"}, {"measurement": "numbers of CFCs vs control", "setting": "BM KSL cells [1]; 3 day culture of non-irradiated BM KSL cells", "result": "significantly increased the numbers of colony forming cells (CFCs)"}, {"measurement": "Supplementary Figure 3b: CFU-GEMM", "setting": "BM KSL cells [1]", "result": "3 (4×) and 6 and 4"}, {"measurement": "Supplementary Figure 3b: CFU-GM", "setting": "BM KSL cells [1]", "result": "22 and 21 and 23 and 20 and 19 and 18"}, {"measurement": "Figure 5b: CFU-GEMM", "setting": "human BM CD34+ cells; 300 cGy-irradiated human BM CD34+ cells, replicates", "result": "8 and 13 and 15 and 22 and 19 and 14"}, {"measurement": "recovery of multipotent CFU-GEMMs", "setting": "human BM CD34+ cells; 72 h following 300 cGy irradiation of human BM CD34+ cells", "result": "increased the recovery of multipotent CFU-GEMMs"}, {"measurement": "DJ001-mediated recovery of hematopoietic progenitor cells with silencing of Rac1 or Bcl2l1", "setting": "BM KSL cells [2]; BM KSL cells, 48 h following 300 cGy", "result": "blocked DJ001-mediated recovery of hematopoietic progenitor cells"}, {"measurement": "Figure 3i: BFU-E", "setting": "BM KSL cells [2]; shBcl-xL", "result": 1}, {"measurement": "Figure 3i: CFU-GM", "setting": "BM KSL cells [2]; shBcl-xL", "result": "9 and 11 and 10"}, {"measurement": "Figure 3i: GEMM", "setting": "BM KSL cells [2]; shBcl-xL", "result": "2 and 1 (2×)"}, {"measurement": "Figure 3i: BFU-E", "setting": "BM KSL cells [2]; shCtrl", "result": "2 and 3 (4×) and 4 (2×) and 5 (2×)"}, {"measurement": "Figure 3i: CFU-GM", "setting": "BM KSL cells [2]; shCtrl", "result": "26 (3×) and 30 and 29 (2×) and 20 and 31 and 28"}, {"measurement": "Figure 3i: GEMM", "setting": "BM KSL cells [2]; shCtrl", "result": "5 (3×) and 13 and 8 (2×) and 7 and 10 and 9"}, {"measurement": "Figure 3i: BFU-E", "setting": "BM KSL cells [2]; shRac1", "result": "1 (2×) and 0"}, {"measurement": "Figure 3i: CFU-GM", "setting": "BM KSL cells [2]; shRac1", "result": "12 and 10 (2×)"}, {"measurement": "Figure 3i: GEMM", "setting": "BM KSL cells [2]; shRac1", "result": "2 and 0 and 3"}, {"measurement": "recovery of BM CFCs and CFU-GEMM colonies vs control", "setting": "BM KSL cells [3]; 300 cGy, 1 μg/mL DJ001, 3 days", "result": "increased recovery of BM CFCs"}, {"measurement": "BFU-E, numbers per replicate", "setting": "BM KSL cells [3]; [7]", "result": "2 (3×) and 4 (2×) and 3 (5×) and 1 (2×)"}, {"measurement": "GEMM, numbers per replicate", "setting": "BM KSL cells [3]; [7]", "result": "5 (3×) and 3 (2×) and 4 (2×) and 6 (5×)"}, {"measurement": "CFU-GEMM", "setting": "BM KSL cells [3]; Supplementary Figure 7g", "result": 7}, {"measurement": "CFU-GEMM", "setting": "BM KSL cells [3]; Supplementary Figure 7d", "result": 7}, {"measurement": "Supplementary Figure 1: PTP activity", "setting": "[4]; 2.7 μg/mL DJ001", "result": "92 and 79 and 96"}, {"measurement": "Supplementary Figure 1: PTP activity", "setting": "[4]; 0.27 g/mL DJ001", "result": "98 and 91 and 84"}, {"measurement": "Supplementary Figure 1: RPTP activity", "setting": "[5]; 2.7 μg/mL DJ001", "result": "83 and 98 and 86"}, {"measurement": "Supplementary Figure 1: RPTP activity", "setting": "[5]; 0.27 g/mL DJ001", "result": "92 and 99 and 95"}, {"measurement": "Supplementary Figure 1: DUSP22 activity", "setting": "[6]; 0.27 μg/mL DJ001", "result": "107 and 96 (2×)"}, {"measurement": "Supplementary Figure 1: DUSP22 activity", "setting": "[6]; 2.7 μg/mL DJ001", "result": "98 and 109 and 100"}]}]}
